Experimental data from patent publication US8173644B2, “3-substituted-[1,2,3]-benzotriazinone compound for enhancing glutamatergic synaptic responses” (Les Laboratoires Servier, priority 2007, dated 2012).

What was measured:
[1] = test system: field EPSP (perforant path / dentate gyrus of the hippocampus); experiment: In vivo physiological testing: field EPSP in dentate gyrus of hippocampus of anesthetized animals; conditions: dose of 5 mg/kg, iv administration
Description: The physiological effects of the invention compound were tested in vivo in anesthetized animals according to the following procedures.
Animals are maintained under anesthesia by phenobarbital administered using a Hamilton syringe pump. Stimulating and recording electrodes are inserted into the perforant path and dentate gyrus of the hippocampus, respectively. Once electrodes are implanted, a stable baseline of evoked responses are elicited using single monophasic pulses (100 μs pulse duration) delivered at 3/min to the stimulating electrode. Field EPSPs are monitored until a stable baseline is achieved (about 20-30 min), after which a solution of test compound in HPCD is injected intraperitoneally and evoked field potentials are recorded. Evoked potentials are recorded for approximately 2 h following drug administration or until the amplitude of the field EPSP returns to baseline. In the latter instance, it is common that an iv administration is also carried out with an appropriate dose of the same test compound.

AMPA receptor = experiment: AMPA mediated whole cell currents in cultured cortical neurons (patch clamp, glutamate-induced steady-state current); assay type: cell-based, Sprague-Dawley rats; conditions: cultured rat cortical neurons, 500 μM glutamate, voltage-clamped at −80 mV; read-out: EC2x value (concentration at which the glutamate induced current is increased by 100%)
Description: Synaptic responses mediated by AMPA receptors are increased according to the method of the invention, using the compound described herein. […] The in vitro assay is described as follows. Cortical cells were prepared from day 18-19 embryonic Sprague-Dawley rats and recorded after 3 days in culture. The extracellular solution (ECS) contained (in mM): NaCl (145), KCl (5.4), HEPES (10), MgCl2 (0.8), CaCl2 (1.8), glucose (10), sucrose (30); pH. 7.4. In order to block the voltage-gated sodium currents, 40 nM TTX was added to the recording solution. […]
The whole-cell current was measured with patch-clamp amplifier (Axopatch 200B), filtered at 2 kHz, digitized at 5 kHz and recorded on a PC with pClamp 8. […] A baseline response for each cell was recorded using a 1 s pulse of 500 μM glutamate dissolved in ECS. Responses to test compound were then determined by application of a 10 s pulse of test compound followed by a 1 s pulse of the same concentration of test compound plus 500 μM glutamate and then 10 s of saline. This pulse sequence was repeated until a stable reading was obtained, or until sufficient data points were measured to allow extrapolation to a calculated maximum change.
The mean value of plateau current between 600 ms to 900 ms after application of glutamate or test compound plus glutamate was calculated and used as the parameter to measure the drug effect. […]

O=C1c2cc3nnn(CCc4cccc(F)c4)c(=O)c3cc2OCN1C1CC1 [8-Cyclopropyl-3-[2-(3-fluorophenyl)ethyl]-7,8-dihydro-3H-[1,3]oxazino[6,5-g][1,2,3]-benzotriazine-4,9-dione]
increase in the amplitude of the field EPSP [1]: 10% | EC2x (concentration that doubles the glutamate-induced current) (AMPA receptor): 100 nM
